Experimental data published in ChEMBL document CHEMBL3885861, “Open TG-GATES”.

Organism: Rattus norvegicus
Assay: Open TG-GATES - Regimen: Single
Format: toxicity, organism-based, Sprague-Dawley
Parameters: regimen Single, gender Male, age 6 weeks
Details: in vivo, po, 0 mg/kg, route gavage, dose level Control; for APTT / Bas / Eos / Fbg / Hb / Ht / Lym / MCH / MCHC / MCV / Mono / Neu / PT / Plat / RBC / Ret / WBC: tissue Blood; for LIVER: tissue Liver; for A/G / ALP / ALT / AST / BUN / CRE / Ca / Cl / DBIL / GLC / IP / K / LDH / Na / PL / RALB / TBIL / TC / TG / TP / gamma-GTP: tissue Plasma

## O=[N+]([O-])c1ccc(O)c([N+](=O)[O-])c1 [2,4-DINITROPHENOL]
3 h
  TERMINAL_BW: 200.9 g
  APTT: 15.9 s
  Bas: 0%
  Eos: 0.8%
  Fbg: 241.6 mg/dL
  Hb: 13.2 g/dL
  Ht: 39.5%
  Lym: 74%
  MCH: 21.6 pg
  MCHC: 33.5%
  MCV: 64.4 fL
  Mono: 8.4%
  Neu: 16.8%
  PT: 11.8 s
  Plat: 109.2 x10_4/uL
  RBC: 613.4 x10_4/ul
  Ret: 9.5%
  WBC: 98.2 x10_2/uL
  LIVER: 9.3 g
  A/G: 2.4
  ALP: 1373.4 IU/L
  ALT: 40.8 IU/L
  AST: 69.4 IU/L
  BUN: 11 mg/dL
  CRE: 0.3 mg/dL
  Ca: 11.1 mg/dL
  Cl: 103.6 meq/L
  DBIL: 0.01 mg/dL
  GLC: 175.6 mg/dL
  IP: 9.4 mg/dL
  K: 4.4 meq/L
  LDH: 117.8 IU/L
  Na: 138.6 meq/L
  PL: 150.4 mg/dL
  RALB: 3.7 g/dL
  TBIL: 0.044 mg/dL
  TC: 87.2 mg/dL
  TG: 52.4 mg/dL
  TP: 5.3 g/dL
  gamma-GTP: 0 IU/L
6 h
  TERMINAL_BW: 197.1 g
  APTT: 16.4 s
  Bas: 0%
  Eos: 0.8%
  Fbg: 232 mg/dL
  Hb: 13.4 g/dL
  Ht: 39.8%
  Lym: 77.2%
  MCH: 21.5 pg
  MCHC: 33.6%
  MCV: 63.9 fL
  Mono: 9.6%
  Neu: 12.4%
  PT: 12.2 s
  Plat: 127 x10_4/uL
  RBC: 623.4 x10_4/ul
  Ret: 8.9%
  WBC: 127.4 x10_2/uL
  LIVER: 8.9 g
  A/G: 2.5
  ALP: 1236 IU/L
  ALT: 36.4 IU/L
  AST: 63.4 IU/L
  BUN: 10.4 mg/dL
  CRE: 0.4 mg/dL
  Ca: 10.8 mg/dL
  Cl: 104.8 meq/L
  DBIL: 0.01 mg/dL
  GLC: 191.6 mg/dL
  IP: 9.3 mg/dL
  K: 4.4 meq/L
  LDH: 96.8 IU/L
  Na: 138.8 meq/L
  PL: 135.4 mg/dL
  RALB: 3.9 g/dL
  TBIL: 0.056 mg/dL
  TC: 79.8 mg/dL
  TG: 52.4 mg/dL
  TP: 5.5 g/dL
  gamma-GTP: 0 IU/L
9 h
  TERMINAL_BW: 203.5 g
  APTT: 15.9 s
  Bas: 0%
  Eos: 1%
  Fbg: 234.6 mg/dL
  Hb: 13 g/dL
  Ht: 38.7%
  Lym: 76.2%
  MCH: 22 pg
  MCHC: 33.7%
  MCV: 65.1 fL
  Mono: 8.8%
  Neu: 14.6%
  PT: 12.2 s
  Plat: 117.6 x10_4/uL
  RBC: 595.4 x10_4/ul
  Ret: 9.4%
  WBC: 108 x10_2/uL
  LIVER: 8.7 g
  A/G: 2.5
  ALP: 1123.8 IU/L
  ALT: 32.8 IU/L
  AST: 63.8 IU/L
  BUN: 11.6 mg/dL
  CRE: 0.3 mg/dL
  Ca: 10.9 mg/dL
  Cl: 104.2 meq/L
  DBIL: 0.01 mg/dL
  GLC: 195.2 mg/dL
  IP: 10.4 mg/dL
  K: 4.6 meq/L
  LDH: 109.6 IU/L
  Na: 139.4 meq/L
  PL: 140 mg/dL
  RALB: 3.8 g/dL
  TBIL: 0.044 mg/dL
  TC: 84.6 mg/dL
  TG: 47.8 mg/dL
  TP: 5.4 g/dL
  gamma-GTP: 0.2 IU/L
24 h
  TERMINAL_BW: 219.1 g
  APTT: 16.3 s
  Bas: 0%
  Eos: 1.2%
  Fbg: 228.6 mg/dL
  Hb: 12.7 g/dL
  Ht: 37.5%
  Lym: 72%
  MCH: 21.1 pg
  MCHC: 33.8%
  MCV: 62.5 fL
  Mono: 9.4%
  Neu: 17.8%
  PT: 11.6 s
  Plat: 138.4 x10_4/uL
  RBC: 600 x10_4/ul
  Ret: 8.1%
  WBC: 106.6 x10_2/uL
  LIVER: 10.9 g
  A/G: 2.4
  ALP: 1480.2 IU/L
  ALT: 37.4 IU/L
  AST: 62.4 IU/L
  BUN: 17 mg/dL
  CRE: 0.4 mg/dL
  Ca: 11.4 mg/dL
  Cl: 103.2 meq/L
  DBIL: 0.012 mg/dL
  GLC: 185.6 mg/dL
  IP: 7.6 mg/dL
  K: 4.6 meq/L
  LDH: 84.2 IU/L
  Na: 139 meq/L
  PL: 160.4 mg/dL
  RALB: 3.9 g/dL
  TBIL: 0.034 mg/dL
  TC: 84 mg/dL
  TG: 120.4 mg/dL
  TP: 5.5 g/dL
  gamma-GTP: 0.2 IU/L
